Assay results: patent US20210308101A1, “METHODS OF TREATING FIBROMYALGIA” (Aptinyx Inc., priority 2019, published 2021)
Entries after “also recorded” stand apart in the source; their conditions may differ.

How the values were obtained:
[1] = tested on: subjects with fibromyalgia; assay: Revised Fibromyalgia Impact Questionnaire (FIQR); format: in vivo, human
Source text: As used herein, “FIQR” is Revised Fibromyalgia Impact Questionnaire. The FIQR is an updated version of the Fibromyalgia Impact Questionnaire which is an assessment of the physical functioning, work status, depression, anxiety, morning tiredness, pain, stiffness, fatigue and wellbeing in fibromyalgia subjects measured over the period of 1 week. The FIQR differs from the FIQ in that it includes questions on memory, tenderness, balance, and environmental sensitivity as well as modified function questions. All 21 FIQR questions are based on an 11-point numerical rating scale/Likert scale ranging from 0 to 10. Lower scores represent a better quality of life. The FIQR is made of the 3 following domains: • Function Domain Score • 9 Questions with Scores Ranging from 0 (No Difficulty) to 10 (Very Difficult) • Sum of those 9 Questions make up the Function Domain Score Ranging from 0 to 90 • Missing Data Imputation Factor: If at least 5 questions were answered, the Function Domain Score was multiplied by 9/(number of questions answered) and rounded off to the nearest whole number. Otherwise, the score was set to missing. • Overall Impact Domain Score • 2 Questions with Scores Ranging from 0 (Never) to 10 (Always) • Sum of those 2 Questions make up the Overall Impact Domain Score Ranging from 0 to 20 • Missing Data Imputation Factor: If 1 question was missing, the Overall Impact Domain Score was multiplied by 2. Otherwise, the score was set to missing. • Symptoms Domain Score • 10 Questions with Scores Ranging from 0 to 10 with Different Categorical Reponses Sum of those 10 Questions make up the Symptoms Domain Score Ranging from 0 to 100 Missing Data Imputation Factor: If at least 5 questions were answered, the Function Domain Score was multiplied by 10/(number of questions answered) and rounded off to the nearest whole number. Otherwise, the score was set to missing.
If all 3 domain scores could be calculated, the Total FIQR Score ranged from 0 to 100 and was calculated based on the normalization domain scores: (Function Domain Score/3)+Overall Impact Domain Score+(Symptoms Domain Score/2). Otherwise, the Total FIQR Score was set to missing. The Function and Symptoms domain scores collected on the CRF applied the normalization factors stated above (Function Domain Score/3 and Symptoms Domain Score/2) in order to calculate the Total FIQR Score on the CRF. As a result, the Function and Symptoms domain scores were derived by the definition stated above in the SAP as opposed to using the collected values on the CRF. The FIQR assessment was collected and analyzed at visits Screening, Day 1, Week 2, Week 4, Week 6, and Follow-up (Week 7). The observed total and domain scores, changes from baseline, and changes from treatment periods were summarized using descriptive statistics. Additionally, the treatment group comparisons were analyzed using the paired ttest and nonparametric Wilcoxon signed-rank test. All FIQR data collected and the calculated total and domain scores at each visit were presented in a subject listing.

[2] = tested on: dorsal anterior cingulate cortex Glx; assay: 1H-MRS Glx levels, dorsal anterior cingulate cortex; format: in vivo, human
Source text: As used herein, “^1H-MRS” is Magnetic Resonance Spectroscopy (1H-MRS) or Proton Magnetic Resonance Spectroscopy. Proton magnetic resonance spectroscopy is a noninvasive imaging technique that allows in vivo determination of biochemical parameters within brain tissue. Proton magnetic resonance spectroscopy data were used to collect brain neurotransmitter levels of Glu and combined glutamate+glutamine metabolites (Glx). This method provides metrics amenable to longitudinal studies such as those proposed here. High-resolution anatomical scans can isolate identical brain structures within individuals over time, thus minimizing error that otherwise would occur because of slight differences in voxel location from 1 evaluation to the next. Previous ^1H-MRS studies have utilized this approach to examine changes in the levels of CNS metabolites in test-retest studies of drug effects. […]
Raw data from each single-voxel spectroscopy sequence underwent manual post-processing using ^1H-MRS software (LCModel; Stephen Provencher, Oakville, Ontario, Canada). […] Glx values were calculated as an absolute concentration using the water signal for normalization or as a ratio to creatine. […]
The analysis visit comparisons stated were analyzed using paired t-tests and/or nonparametric Wilcoxon signed-rank tests of Glx levels at each voxel independently in SPSS. […]

[3] = Week 2 (placebo) to Week 4 (NYX-2925 20 mg)
[4] = Week 2 (placebo) to Week 6 (NYX-2925 200 mg)

## CC(C)C(=O)N1CCC[C@]12CN([C@H](C(N)=O)[C@@H](C)O)C2=O [NYX-2925, (2S, 3R)-3-hydroxy-2-((R)-5-isobutyryl-1-oxo-2,5-diazaspiro[3.4]octan-2-yl)butanamide]
[1]; NYX-2925 20 mg
  total FIQR score, change from baseline: reductions from baseline
[1]; [3]
  FIQR Symptoms Domain score, mean change: −2.1
  FIQR Total score, mean change: −0.5
[1]; [4]
  FIQR Function Domain score, mean change: −3.7
  FIQR Overall Impact Domain score, mean change: −2.0
[1]; Week 2 (placebo) to Week 6 (NYX-2925 200 mg), p=0.0135
  FIQR Total score, mean change: −6.3
[1]; Week 2 (placebo) to Week 6 (NYX-2925 200 mg), p=0.0207
  FIQR Symptoms Domain score, mean change: −6.2
[1]; week six, after four weeks of NYX-2925, scale 0 to 100, n=21
  Total FIQR score, reduction from baseline: 9.6 point
[2]; NYX-2925 20 mg vs placebo, p<0.05
  dACC resting Glx (concentrations and ratios to creatine): statistically significant reductions of Glx levels; also recorded: decreased resting Glx
[2]; NYX-2925 200 mg vs placebo
  dACC mean Glx levels: No significant decrease; also recorded: No effect
